From patent US20100256104A1, “NOVEL AMIDE COMPOUNDS” (ASTRAZENECA R&D, priority 2009, published 2010)

Target: T1, recombinant human GR (Homo sapiens, UniProt P04150)
T1 construct: purchased Panvera/Invitrogen P2812 (kit P2893)
T1 sequence (P04150 1-777): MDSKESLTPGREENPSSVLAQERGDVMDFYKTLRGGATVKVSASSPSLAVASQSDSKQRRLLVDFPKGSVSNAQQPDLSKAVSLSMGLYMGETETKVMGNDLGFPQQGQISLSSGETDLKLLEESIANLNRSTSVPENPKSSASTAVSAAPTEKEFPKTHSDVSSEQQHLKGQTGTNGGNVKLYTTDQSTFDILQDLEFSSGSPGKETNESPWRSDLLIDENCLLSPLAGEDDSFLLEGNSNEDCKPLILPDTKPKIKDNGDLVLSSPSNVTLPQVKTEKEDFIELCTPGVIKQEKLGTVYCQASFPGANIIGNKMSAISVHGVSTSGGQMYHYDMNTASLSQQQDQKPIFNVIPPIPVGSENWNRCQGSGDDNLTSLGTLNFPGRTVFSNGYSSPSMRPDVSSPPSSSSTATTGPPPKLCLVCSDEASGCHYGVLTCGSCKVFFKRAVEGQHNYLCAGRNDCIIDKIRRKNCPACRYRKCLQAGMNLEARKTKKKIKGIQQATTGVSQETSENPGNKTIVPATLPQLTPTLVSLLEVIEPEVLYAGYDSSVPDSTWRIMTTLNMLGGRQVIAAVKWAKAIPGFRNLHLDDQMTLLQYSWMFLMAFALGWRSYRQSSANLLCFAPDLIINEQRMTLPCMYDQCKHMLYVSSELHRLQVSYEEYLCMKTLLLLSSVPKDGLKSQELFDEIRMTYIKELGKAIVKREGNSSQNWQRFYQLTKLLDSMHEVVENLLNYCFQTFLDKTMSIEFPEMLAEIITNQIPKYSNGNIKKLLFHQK
Experiment: Human Glucocorticoid Receptor (GR) Assay, fluorescence polarization competition with GS Red tracer
Settings: 2 hours at room temperature, 100% control 10 μM Dexamethasone, XLfit model 205, read-out: Inhibition of GR binding, IC50
Method in brief: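 Fluorescence polarization competition: recombinant human GR with GS Red tracer, stabilizing peptide and DTT in potassium phosphate/sodium molybdate/EDTA buffer. 2 h in dark at room temperature, read at ex 530/em 590 nm. Controls: DMSO (0%) and 10 μM dexamethasone (100%).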

Question: `COCC(=O)O[C@]1(C(=O)SCF)[C@H](C)C[C@H]2[C@@H]3CCC4=Cc5c(cnn5-c5cccc(C(=O)N6CCC[C@@H]6C(N)=O)c5)C[C@]4(C)[C@@]3(F)[C@@H](O)C[C@@]21C` [Example 47, (1R,2R,3aS,3bS, 10aS,10bR,11S,12aS)-7-(3-{[(2R)-2-carbamoyl-pyrrolidin-1-yl]carbonyl}phenyl)-10b-fluoro-1-{[(fluoromethyl)sulfanyl]carbonyl}-11-hydroxy-2,10a,12a-trimethyl-1,2,3,3a,3b,4,5,7,10, 10a,10b,11,12,12a-tetradecahydrocyclo-penta[5,6]naphtho [1,2-f]indazol-1-yl methoxyacetate] was tested. Which IC50 did it give?
Answer: 7.5 nM

Question: With `C[C@]12Cc3cnn(-c4cccc(C(=O)N5CCC[C@@H]5C(N)=O)c4)c3C=C1CC[C@@H]1[C@@H]2[C@@H](O)C[C@@]2(C)[C@H]1CC[C@]2(OC(=O)c1cocn1)C(=O)SCC#N` [Example 49, (1R,3aS,3bS,10aR, 10bS,11S,12aS)-7-(3-{[(2R)-2-carbamoyl-pyrrolidin-1-yl]carbonyl}phenyl)-1-{[(cyanomethyl)sulfanyl]carbonyl}-11-hydroxy-10a,12a-dimethyl-1,2,3,3a,3b,4,5,7,10, 10a,10b,11,12,12a-tetradecahydrocyclo-penta[5,6]naphtho [1,2-f]indazol-1-yl 1,3-oxazole-4-carboxylate] as the molecule, how does the IC50 read?
Answer: 12 nM

Question: With `CCC(=O)O[C@]1(C(=O)SCF)CC[C@H]2[C@@H]3CCC4=Cc5c(cnn5-c5cccc(C(=O)N6CCC[C@@H]6C(N)=O)c5)C[C@]4(C)[C@@]3(F)[C@@H](O)C[C@@]21C` [Example 61, (1R,3aS,3bS,10aS, 10bR,11S,12aS)-7-(3-{[(2R)-2-carbamoyl-pyrrolidin-1-yl]carbonyl}phenyl)-10b-fluoro-1-{[(fluoromethyl)sulfanyl]carbonyl}-11-hydroxy-10a,12a-dimethyl-1,2,3,3a,3b,4,5,7,10, 10a,10b,11,12,12a-tetradecahydrocyclo-penta[5,6]naphtho [1,2-f]indazol-1-yl propanoate] as the molecule, how does the IC50 read?
Answer: 3.6 nM

Question: `CCC(=O)O[C@]1(C(=O)SCC#N)CC[C@H]2[C@@H]3CCC4=Cc5c(cnn5-c5cccc(C(=O)NCC(N)=O)c5)C[C@]4(C)[C@H]3[C@@H](O)C[C@@]21C` [Example 11, (1R,3aS,3bS,10aR,10bS,11S,12aS)-7-{3-[(2-Amino-2-oxoethyl)carbamoyl]phenyl}-1-{[(cyanomethyl)sulfanyl]carbonyl}-11-hydroxy-10a,12a-dimethyl-1,2,3,3a,3b,4,5,7,10,10a,10b,11,12,12a-tetradecahydrocyclopenta[5,6]naphtho[1,2-f]indazol-1-yl propanoate] was tested. Which IC50 did it give?
Answer: 3.7 nM

Question: `CCC(=O)O[C@]1(C(=O)SCC#N)CC[C@H]2[C@@H]3CCC4=Cc5c(cnn5-c5cccc(C(=O)N6CCC[C@@H]6C(N)=O)c5)C[C@]4(C)[C@@]3(F)[C@@H](O)C[C@@]21C` [Example 60, (1R,3aS,3bS,10aS, 10bR,11S,12aS)-7-(3-{[(2R)-2-carbamoyl-pyrrolidin-1-yl]carbonyl}phenyl)-1-{[(cyanomethyl)sulfanyl]carbonyl}-10b-fluoro-11-hydroxy-10a,12a-dimethyl-1,2,3,3a, 3b,4,5,7,10,- 10a,10b,11,12,12a-tetradecahydro-cyclopenta[5,6]naphtho [1,2-f]indazol-1-yl propanoate] was tested. Which IC50 did it give?
Answer: 3.3 nM

Question: `CCC(=O)O[C@]1(C(=O)SCF)CC[C@H]2[C@@H]3CCC4=Cc5c(cnn5-c5cccc(C(=O)N6CCC[C@@H]6C(N)=O)c5)C[C@]4(C)[C@H]3[C@@H](O)C[C@@]21C` [Example 13, (1R,3aS,3bS,10aR,10bS,11S,12aS)-7-(3-{[(2R)-2-Carbamoylpyrrolidin-1-yl]carbonyl}phenyl)-1-{[(fluoromethyl)sulfanyl]carbonyl}-11-hydroxy-10a,12a-dimethyl-1,2,3,3a,3b,4,5,7,10,10a,10b,11,12,12a-tetradecahydrocyclopenta[5,6]naphtho[1,2-f]indazol-1-yl propanoate] was tested. Which IC50 did it give?
Answer: 2.5 nM

Question: How did the IC50 turn out when `C[C@]12Cc3cnn(-c4cccc(C(=O)NCc5cccnc5)c4)c3C=C1CC[C@@H]1[C@@H]2[C@@H](O)C[C@@]2(C)[C@H]1CC[C@]2(OC(=O)c1cocn1)C(=O)SCF` [Example 39, (1R,3aS,3bS,10aR, 10bS,11S,12aS)-1-{[(fluoromethyl)sulfanyl]carbonyl}-11-hydroxy-10a,12a-dimethyl-7-{3-[(pyridin-3-ylmethyl)carbamoyl]-phenyl}-1,2,3,3a,3b, 4,5,7,10,10a,- 10b,11,12,12a-tetradecahydro-cyclopenta[5,6]naphtho [1,2-f]indazol-1-yl 1,3-oxazole-4-carboxylate] was run?
Answer: 2.4 nM

Question: With `COCC(=O)O[C@]1(C(=O)SCF)[C@H](C)C[C@H]2[C@@H]3CCC4=Cc5c(cnn5-c5cccc(C(=O)N[C@@H](C)C(N)=O)c5)C[C@]4(C)[C@@]3(F)[C@@H](O)C[C@@]21C` [Example 22, (1R,2R,3aS,3bS,10aS,10bR,11S,12aS)-7-(3-{[(1S)-2-Amino-1-methyl-2-oxoethyl]carbamoyl}phenyl)-10b-fluoro-1-{[(fluoromethyl)sulfanyl]carbonyl}-11-hydroxy-2,10a,12a-trimethyl-1,2,3,3a,3b,4,5,7,10,10a,10b,11,12,12a-tetradecahydrocyclopenta[5,6]naphtho[1,2-f]indazol-1-yl methoxyacetate] as the molecule, how does the IC50 read?
Answer: 1.9 nM

Question: `CCC(=O)O[C@]1(C(=O)SCF)CC[C@H]2[C@@H]3CCC4=Cc5c(cnn5-c5cccc(C(=O)NCCSC)c5)C[C@]4(C)[C@H]3[C@@H](O)C[C@@]21C` [Example 7, (1R,3aS,3bS,10aR,10bS,11S,12aS)-1-{[(Fluoromethyl)sulfanyl]carbonyl}-11-hydroxy-10a,12a-dimethyl-7-(3-{[2-(methylsulfanyl)ethyl]carbamoyl}phenyl)-1,2,3,3a,3b,4,5,7,10,10a,10b,11,12,12a-tetradecahydrocyclopenta[5,6]naphtho[1,2-f]indazol-1-yl propanoate] was tested. Which IC50 did it give?
Answer: 1.4 nM

Question: `CCC(=O)O[C@]1(C(=O)SCF)CC[C@H]2[C@@H]3CCC4=Cc5c(cnn5-c5cccc(C(=O)NC)c5)C[C@]4(C)[C@@]3(F)[C@@H](O)C[C@@]21C` [Example 33, (1R,3aS,3bS,10aS, 10bR,11S,12aS)-10b-fluoro-1-{[(fluoromethyl)sulfanyl]carbonyl}-11-hydroxy-10a,12a-dimethyl-7[3-(methylcarbamoyl)phenyl]-1,2,3,3a,3b,4,5,7,10, 10a,10b,11,12,12a-tetradecahydrocyclo-penta[5,6]naphtho [1,2-f]indazol-1-yl propanoate] was tested. Which IC50 did it give?
Answer: 5.2 nM

Question: How did the IC50 turn out when `CSCCNC(=O)c1cccc(-n2ncc3c2C=C2CC[C@@H]4[C@H]([C@@H](O)C[C@@]5(C)[C@H]4CC[C@]5(OC(=O)C4CC4)C(=O)SCC#N)[C@@]2(C)C3)c1` [Example 9, (1R,3aS,3bS,10aR,10bS,11S,12aS)-1-{[(Cyanomethyl)sulfanyl]carbonyl}-11-hydroxy-10a,12a-dimethyl-7-(3-{[2-(methylsulfanyl)ethyl]carbamoyl}phenyl)-1,2,3,3a,3b,4,5,7,10,10a,10b,11,12,12a-tetradecahydrocyclopenta[5,6]naphtho[1,2-f]indazol-1-yl cyclopropanecarboxylate] was run?
Answer: 0.91 nM
